{"source": "patent US8293462B2", "about": "“Method of preserving early mammalian embryos by vitrification” (Central Institute for Experimental Animals, priority 2005, dated 2012)", "system": "marmoset ES cells, cell line No. 40", "assay": "Survival of ES cell clumps after thaw, cell line No. 40", "format": "cell-based, common marmoset (Callithrix jacchus)", "conditions": "FIG. 1", "source_text": "As marmoset ES cells, two cell lines, i.e., No. 40 and No. 20, which were established by the Central Institute for Experimental Animals (Japan), were employed (Sasaki E. et al., 2005, Establishment of Novel Embryonic Stem Cell Lines Derived from the Common Marmoset (Callithrix jacchus), Stem Cells. (in press)). The cell clumps separated via trypsin treatment were recovered with an egg-sampling pipette and used in the preservation experiment.\nIn the method of preservation by vitrification according to the present invention, […] PB1, 10% propylene glycol, 30% ethylene glycol, 20% Percoll®(t, and 0.3 M sucrose were used. In thaw, the SPB1 solution comprising PB1 and 0.3 M sucrose was used.\nIn preservation of the control embryos by vitrification (Fujioka T. et al., Int. J. Dev. Biol. 48: 1149-1154), a DAP213 solution comprising PB1, 2 mol of DMSO, 1 mol of acetamide, and 3 mol of propylene glycol was used. In slow freezing (Reubinoff B. E. et al., Human Reprod. Vol. 16, No. 10, 2187-2194), the SF solution comprising 10% DMSO in FCS was used.\nSubsequently, the cell clumps were introduced into a preservation tube (Nunc 375353) with 5 μl of P10, followed by cooling at 0° C. for 1 minute. Thereafter, 95 μl of PEPeS, which had been cooled to 0° C., was introduced into the tube. […]", "data": [{"smiles": "CC(O)CO", "note": "(centres unmarked) [propylene glycol]", "values": [{"measurement": "survival rate after thaw compared with control that had not been preserved", "setting": "pretreatment solution PB1 + 5% propylene glycol, 4 days after initiation of culture", "value": "significantly lower"}, {"measurement": "survival rate after thaw compared with control that had not been preserved", "setting": "pretreatment solution PB1 + 15% propylene glycol, 4 days of culture", "value": "did not differ from the control embryos"}]}]}
